Where two headings read alike, the source gives them in different places.
Experiments:
[1] = test system: azathioprine-sensitive, rosette-forming cells; experiment: mouse E-rosette procedure (restoration of azathioprine-sensitive rosette-forming cells in adult thymectomized mice); assay type: in vivo, mouse (CD-1
Method: (§1) Antiinflammatory activity is reflected in the so-called rat foot edema test, in which the ability of an oral dose of the compound to inhibit an inflammatory reaction is measured, while immunoregulatory activity is assessed by the so-called mouse E-rosette procedure in which the ability of the test compound to restore erythrocyte rosette formation in thymectomized mice is measured. These tests are described in greater detail below.
As mentioned above, the immunoregulatory activity of the compounds of this invention is assessed by the mouse E-rosette procedure. In the mouse, the presence of a thymus is required for full expression of normal rosette formation with sheep erythrocytes [see for example, Bach and Dardenne, Immunol. 25, 353 (1973)]. The procedure examines the ability of a drug to restore azathioprine-sensitive, rosette-forming cells in adult thymectomized mice to the levels of normal animals. Specifically, rosette formation is examined in CD-1 mice thymectomized at 4 weeks of age and left at least 14 days post-surgery before manipulation (ATX mice). The ATX mice are dosed orally either with saline vehicle or drug. Sixteen hours later, single cell suspensions are prepared in Hanks balanced salt solution (HBSS) from the pooled spleens of three mice. To each tube is added 0.1 ml of lymphocytes (6×10^7 /ml) in HBSS and either 0.1 ml of HBSS or 0.1 ml of 40 μg/ml azathioprine in HBSS. After 90 minutes incubation at 37° C., the cells are washed 2× with 5 ml. of HBSS, made back up to 0.2 ml, and 0.2 ml of sheep red blood cells (erythrocytes) at 1.2×10^8 cells/ml. added. Then […] on hemagglutination slides and the number of rosettes counted. The ability of the test compound to restore the number of azathioprine sensitive rosetting cells to normal or higher is determined. In normal mice 42%±12% azathioprine sensitivity is found. In adult thymectomized mice 3±3% azathioprine sensitivity is found.

[2] = test system: humoral immune response to sheep red blood cells; experiment: humoral immune response of mice to sheep red blood cells; assay type: in vivo; conditions: for effect on humoral immune response to sheep red blood cells (immunosuppressive drugs): same conditions, dose of the drugs not given
[3] = test system: carrageenin-induced rat foot edema; experiment: carrageenin-induced rat foot edema test; assay type: in vivo, rat (male albino)
Method: as §1
As mentioned above, the antiinflammatory activity of the compounds of the present invention is determined in the standard carrageenin-induced rat foot edema test [described by C. A. Winter et al., Proc. Soc. Exp. Biol. 111, p. 544 (1962)]. In this test, antiinflammatory activity is determined as the inhibition of edema formation in the hind paw of male albino rats (weight 150-190 g.) in response to a subplantar injection of carrageenin. The carrageenin is injected as a 1 percent aqueous suspension (0.05 ml.) 1 hour after oral administration of the drug. Edema formation is then assessed 3 hours after the carrageenin injection by measuring the volume of the injected paw initially as well as at the 3 hour mark. The increase in volume three hours after carrageenin injection constitutes the individual response. Compounds are considered active if the response between the drug-treated animals (six rats/group) and the control group (i.e., animals receiving the vehicle alone) is deemed to be significant on comparison with results afforded by standard compounds like acetylsalicylic acid at 100 mg./kg […] phenylbutazone at 33 mg./kg., both by the oral route of administration. The activity of the compound under test is expressed as the % inhibition of edema at a given oral dose. The ability of compounds to inhibit edema at various oral dosages (mg./kg., i.e. mg. of drug/kg. of rat body weight) is shown in Table II.

rat = experiment: acute toxicity in the rat; assay type: in vivo; conditions: rats
Method: (§2) Its oral LD50 in mice is greater than 100 mg./kg. In the rat, it also has an LD50 value greater than 1000 mg./kg. […] No changes in clinical chemistry, hematology or body weight were observed.

[4] = acute toxicity in the rat; assay type: in vivo; conditions: rat, in vivo, po
Method: as §2

[5] = test system: ultraviolet light induced erythema; experiment: ultraviolet light induced erythema procedure; assay type: in vivo; conditions: for suppression of erythema (NSAI drugs): ultraviolet light induced erythema, dose not given
mice = experiment: acute oral toxicity in mice; assay type: in vivo
Method: as §2

[6] = test system: polyarthritis produced by injection of complete Freund's adjuvant; experiment: polyarthritis produced by injection of complete Freund's adjuvant in Wistar-Lewis rats; assay type: in vivo, rat (Wistar-Lewis); conditions: for effect on weight loss induced by adjuvant disease: rat, in vivo; for suppression of primary and secondary responses: reference NSAI drugs, dose not given
Description: This pattern of antiarthritic activity again distinguishes 4-(2-hydroxyethylthiomethyl)pyridine /from the classical NSAI drugs.

[7] = test system: prostaglandin synthesis in MC5-5 cells; experiment: prostaglandin synthesis in MC5-5 cells in vitro; assay type: cell-based; conditions: read-out: IC50, inhibition of prostaglandin synthesis in MC5-5 cells
water solubility = assay type: physicochemical; conditions: dihydrogen phosphate salt
rats = conditions: oral
[8] = oral dosage of 1 mg./kg., thymectomized mice
[9] = oral dosage of 33 mg./kg., 3 hours after carrageenin

SMILES: CC(O)C(C)SCc1ccncc1 (stereo not shown)
- % Rosetting Cells [1, 8]: 63%

SMILES: COc1ccc(C(O)CSCc2ccncc2)cc1 (stereo not shown)
- % Rosetting Cells [1, 8]: 43%

SMILES: OCC(O)CSCc1ccncc1 (stereo not shown) [drawing 17]
- % Rosetting Cells [1, 8]: 57%

SMILES: CC(O)CSCc1ccncc1 (stereo not shown) [drawing 21]
- % Rosetting Cells [1, 8]: 56%

SMILES: Oc1ccccc1SCc1ccncc1
- % Rosetting Cells [1, 8]: 59%

SMILES: OCCCSCc1ccncc1 [CH2 CH2 CH2, H, 1, 4-(3-Hydroxypropylthiomethyl)pyridine]
- % Rosetting Cells [1, 8]: 36%

SMILES: Cn1cnc([N+](=O)[O-])c1Sc1ncnc2nc[nH]c12 [azathioprine]
- effect on humoral immune response to sheep red blood cells (immunosuppressive drugs) [2]: profoundly inhibitory

SMILES: CC(CO)SCc1ccncc1 (stereo not shown) [drawing 30]
- % Inhibition of Edema [3, 9]: 20%

SMILES: OCCSCCc1ccncc1 [CH2 CH2, H, 2, 4-[2-(2-Hydroxyethylthio)ethyl]pyridine]
- % Rosetting Cells [1, 8]: 50%

SMILES: OC(CSCc1ccncc1)c1ccccc1 (stereo not shown)
- % Rosetting Cells ([1]; oral, 10 mg./kg.): 50%

SMILES: CC(O)CSCc1ccncc1 (stereo not shown) [drawing 31]
- % Inhibition of Edema [3, 9]: 5%

SMILES: O=P1(N(CCCl)CCCl)NCCCO1 (stereo not shown) [cyclophosphamide]
- effect on humoral immune response to sheep red blood cells (immunosuppressive drugs) [2]: profoundly inhibitory

SMILES: OCCSCc1ccncc1 [4-(2-Hydroxyethylthiomethyl)pyridine]
- acute toxicity relative to levamisole (rat): less acutely toxic than levamisole
- LD50 [4]: > 1000 mg/kg
- activity in ultraviolet light induced erythema procedure ([5]; 33 mg./kg. p.o.): lack of activity
- effect on humoral immune response to sheep red blood cells ([2]; four daily oral doses, 33 mg./kg.): did not affect the humoral immune response
- % Inhibition of Edema [3, 9]: 52%
- % Inhibition of Edema ([3]; oral, 3.3 mg./kg.): 16%
- % Inhibition of Edema ([3]; oral, 10 mg./kg.): 29%
- acute toxicity relative to levamisole (mice; mice): less acutely toxic than levamisole
- LD50 (mice; mouse, in vivo, po): greater than 100 mg./kg.
- % Rosetting Cells ([1]; oral, 0.01 mg./kg.): 16%
- ED50 ([6]; Rattus norvegicus, po): ~33 mg/kg
- effect on the rapid onset, acute inflammation of the adjuvant-injected foot ([6]; day 4 or day 16): no effects
- antiarthritic effect on the secondary response (spread of disease to the uninjected foot) ([6]; p.o.): selective for the slow onset, lymphoid cell mediated, secondary response
- protection from adjuvant polyarthritis ([6]; p.o.): dose-related protection
- effect on weight loss induced by adjuvant disease [6]: does not affect the weight loss
- IC50 [7]: > 100 µM

SMILES: CC(C)(O)CSCc1ccncc1
- % Rosetting Cells [1, 8]: 39%

SMILES: O=P(O)(O)O.OCCSCc1ccncc1 [4-(2-hydroxyethylthiomethyl)pyridinium dihydrogen phosphate]
- water solubility (water solubility): excellent water solubility

SMILES: CCCCC1C(=O)N(c2ccccc2)N(c2ccccc2)C1=O [phenylbutazone, reference compound]
- suppression of erythema (NSAI drugs) [5]: clearcut suppression of erythema
- effect on weight loss induced by adjuvant disease [6]: partially preventing the weight loss
- suppression of primary and secondary responses [6]: effective in suppressing both the primary and secondary responses

SMILES: CC(CO)SCc1ccncc1 (stereo not shown) [drawing 19]
- % Rosetting Cells [1, 8]: 40%

SMILES: OCCSCc1ccncn1 [4-(2-hydroxyethylthiomethyl)pyrimidine, 4-(2-Hydroxyethylthiomethyl)pyrimidine]
- % Inhibition of Edema [3, 9]: 11%
- restoration of rosette formation ([1]; oral dosage of 1 mg./kg., pyrimidine): 38%

SMILES: OCC(SCc1ccncc1)c1ccccc1 (stereo not shown)
- % Rosetting Cells [1, 8]: 33%

SMILES: CC(=O)Oc1ccccc1C(=O)O [aspirin, acetylsalicylic acid]
- ulcerogenic effects (rats; 50 mg./kg.): distinct ulcerogenic effects

SMILES: OCC(O)CSCc1ccncc1 (stereo not shown) [drawing 29]
- % Inhibition of Edema [3, 9]: 17%

SMILES: COCCSCc1ccncc1 [CH2 CH2, CH3, 1, 4-(2-Methoxyethylthiomethyl)pyridine]
- % Rosetting Cells [1, 8]: 33%

SMILES: CC(SCc1ccncc1)C(O)c1ccccc1 (stereo not shown)
- % Rosetting Cells [1, 8]: 33%

SMILES: O=[N+]([O-])c1ccc(C(O)CSCc2ccncc2)cc1 (stereo not shown)
- % Rosetting Cells [1, 8]: 40%

SMILES: CN1C(C(=O)Nc2ccccn2)=C(O)c2ccccc2S1(=O)=O [Piroxicam, reference compound]
- effect on weight loss induced by adjuvant disease [6]: partially preventing the weight loss
- suppression of primary and secondary responses [6]: effective in suppressing both the primary and secondary responses

SMILES: CN(Cc1cnc2nc(N)nc(N)c2n1)c1ccc(C(=O)N[C@@H](CCC(=O)O)C(=O)O)cc1 [methotrexate]
- effect on humoral immune response to sheep red blood cells (immunosuppressive drugs) [2]: profoundly inhibitory

SMILES: Sc1ncnc2nc[nH]c12 [6-mercaptopurine]
- effect on humoral immune response to sheep red blood cells (immunosuppressive drugs) [2]: profoundly inhibitory

SMILES: COc1ccc2c(c1)c(CC(=O)O)c(C)n2C(=O)c1ccc(Cl)cc1 [indomethacin]
- suppression of erythema (NSAI drugs) [5]: clearcut suppression of erythema
- ulcerogenic effects (rats; 10 mg./kg.): distinct ulcerogenic effects

SMILES: CC(=O)OCCSCc1ccncc1 [CH2 CH2, drawing 27, 1, 4-(2-Acetoxyethylthiomethyl)pyridine]
- % Rosetting Cells [1, 8]: 40%
